{"source": "patent US6946297B2", "about": "“System for stabilizing samples” (priority 1999, dated 2005)", "format_in_all_cases": "cell-based", "key": {"Escherichia coli": {"test_system": "Escherichia coli", "assay": "Survival of organisms in inoculated urine with preservative components, 24 hours at room temperature", "parameters": "key to Survival value esco: 24 h count / control count; 1 = no change, 0.1 = 1-log decrease", "conditions": "for Concentration with cidal activity against Escherichia coli: component alone", "procedure": "(§1) Antimicrobial activity for each active ingredient in the Chemistat I formulations was first determined for representative organisms listed in Table I. A culture for each organism of interest on blood agar was incubated at 36° C. overnight. About two to three colonies of the organism were transferred via sterile swab from the blood agar culture into a 5 ml Mueller-Hinton broth culture tube, which was then incubated on a rotator for about two to three hours at 36° C. Using a spectrophotometer set at a wavelength of 630 nm, the turbidity of broth culture was adjusted by the addition of Mueller-Hinton broth to an optical density equivalent to approximately 1×10^8 colony forming units (cfu)/ml to form an inoculum solution. An aliquot of the inoculum solution was plated onto blood agar to determine the actual control organism count. For each component listed in Table II, the component was added to filter-sterilized pooled normal urine at the concentration given in Table II to form a test sample. The test sample was then inoculated with an aliquot of the inoculum solution providing a final organism count of approximately 1×10^6 cfu/ml of test sample. Immediately after thorough mixing, an aliquot of the test sample was removed and serially diluted in PBS, and serial dilutions were plated onto blood agar to determine the Time Zero organism count. The inoculated plates were incubated at 36° C., and organism counts were recorded after 18-24 hours. After incubating the test sample for 24 hours at room temperature, an aliquot of the test sample was again removed, serially diluted in PBS and plated onto blood agar. After incubating for 18-24 hours at 36° C., organism counts were obtained. The organism count obtained after 24 hours incubation at room temperature was divided by the control organism count to provide the survival value of each organism as recorded in Table II. With respect to changes in microbial count, a survival value of 1 represents no change; a survival value of 0.1 indicates a 1-log decrease; a survival value of 10 indicates a 1-log increase; and a survival value of 0.000 represents a decrease of greater than or equal to 3-logs. In comparison, the lower the survival value, the greater the component's capacity for controlling organism growth."}, "Klebsiella pneumoniae": {"test_system": "Klebsiella pneumoniae", "assay": "Survival of organisms in inoculated urine with preservative components, 24 hours at room temperature", "procedure": "as §1"}, "Proteus vulgaris": {"test_system": "Proteus vulgaris", "assay": "Survival of organisms in inoculated urine with preservative components, 24 hours at room temperature", "procedure": "as §1"}, "Pseudomonas aeruginosa": {"test_system": "Pseudomonas aeruginosa", "assay": "Survival of organisms in inoculated urine with preservative components, 24 hours at room temperature", "conditions": "for Concentration with cidal activity against Pseudomonas aeruginosa: component alone", "procedure": "as §1"}, "Enterococcus faecalis": {"test_system": "Enterococcus faecalis", "assay": "Survival of organisms in inoculated urine with preservative components, 24 hours at room temperature", "parameters": "key to Survival value enfa: 24 h count / control count; 1 = no change, 0.1 = 1-log decrease", "conditions": "for Concentration with cidal activity against Enterococcus faecalis: component alone", "procedure": "as §1"}, "Candida albicans": {"test_system": "Candida albicans", "assay": "Survival of organisms in inoculated urine with preservative components, 24 hours at room temperature", "parameters": "key to Survival value caal: 24 h count / control count; 1 = no change, 0.1 = 1-log decrease", "conditions": "for Concentration with cidal activity against Candida albicans: component alone", "procedure": "as §1"}, "Enterobacter aerogenes": {"test_system": "Enterobacter aerogenes", "assay": "Survival of organisms in inoculated urine with preservative components, 24 hours at room temperature", "parameters": "key to Survival value enae: 24 h count / control count; 1 = no change, 0.1 = 1-log decrease", "conditions": "for Concentration with cidal activity against Enterobacter aerogenes: component alone", "procedure": "as §1"}, "[1]": {"test_system": "microorganisms of interest", "assay": "Antimicrobial (cidal) activity against the organisms of interest taken together", "conditions": "component alone", "procedure": "as §1, with “With respect to changes in microbial count, a survival value of 1 represents no change; a survival value of 0.1 indicates a 1-log decrease; a survival value of 10 indicates a 1-log increase; and a survival value of 0.000 represents a decrease of greater than or equal to 3-logs. In comparison, the lower the survival value, the greater the component's capacity for controlling organism growth.” left out"}, "[2]": {"conditions": "single component at 0.005 mg/ml"}, "[3]": {"conditions": "single component at 0.0075 mg/ml"}}, "note": "Values joined by “and” are separate entries in the source; they are usually repeats but may differ in a detail not shown here. Identical values can stand only once."}
{"smiles": "OCCc1ccccc1", "note": "[2-Phenyl ethanol, 2-phenyl ethanol]", "values": [{"measurement": "Concentration with cidal activity against Escherichia coli", "setting": "Escherichia coli", "result": 4, "unit": "μl/ml"}, {"measurement": "Survival value esco", "setting": "Escherichia coli; single component at 1 μl/ml", "result": "tntc"}, {"measurement": "Survival value esco", "setting": "Escherichia coli; single component at 1.8 μl/ml", "result": "tntc"}, {"measurement": "Survival value esco", "setting": "Escherichia coli; single component at 2.5 μl/ml", "result": 0.245}, {"measurement": "Survival value esco", "setting": "Escherichia coli; single component at 4 μl/ml", "result": 0.000}, {"measurement": "Survival value esco", "setting": "Escherichia coli; single component at 10 μl/ml", "result": 0.000}, {"measurement": "Survival value klpn", "setting": "Klebsiella pneumoniae; single component at 1.8 μl/ml", "result": "tntc"}, {"measurement": "Survival value prvu", "setting": "Proteus vulgaris; single component at 1.8 μl/ml", "result": "tntc"}, {"measurement": "Concentration with cidal activity against Pseudomonas aeruginosa", "setting": "Pseudomonas aeruginosa", "result": 5, "unit": "μl/ml"}, {"measurement": "Survival value psae", "setting": "Pseudomonas aeruginosa; single component at 1 μl/ml", "result": 4.819}, {"measurement": "Survival value psae", "setting": "Pseudomonas aeruginosa; single component at 1.8 μl/ml", "result": "tntc"}, {"measurement": "Survival value psae", "setting": "Pseudomonas aeruginosa; single component at 2.5 μl/ml", "result": 0.199}, {"measurement": "Survival value psae", "setting": "Pseudomonas aeruginosa; single component at 4 μl/ml", "result": 0.019}, {"measurement": "Survival value psae", "setting": "Pseudomonas aeruginosa; single component at 5 μl/ml", "result": 0.000}, {"measurement": "Survival value psae", "setting": "Pseudomonas aeruginosa; single component at 10 μl/ml", "result": 0.000}, {"measurement": "Concentration with cidal activity against Enterococcus faecalis", "setting": "Enterococcus faecalis", "result": "> 10", "unit": "μl/ml"}, {"measurement": "Survival value enfa", "setting": "Enterococcus faecalis; single component at 1 μl/ml", "result": "tntc"}, {"measurement": "Survival value enfa", "setting": "Enterococcus faecalis; single component at 1.8 μl/ml", "result": "tntc"}, {"measurement": "Survival value enfa", "setting": "Enterococcus faecalis; single component at 2.5 μl/ml", "result": "tntc"}, {"measurement": "Survival value enfa", "setting": "Enterococcus faecalis; single component at 4 μl/ml", "result": "tntc"}, {"measurement": "Survival value enfa", "setting": "Enterococcus faecalis; single component at 5 μl/ml", "result": "tntc"}, {"measurement": "Survival value enfa", "setting": "Enterococcus faecalis; single component at 10 μl/ml", "result": 1.495}, {"measurement": "Concentration with cidal activity against Candida albicans", "setting": "Candida albicans", "result": 10, "unit": "μl/ml"}, {"measurement": "Survival value caal", "setting": "Candida albicans; single component at 1.8 μl/ml", "result": "tntc"}, {"measurement": "Survival value caal", "setting": "Candida albicans; single component at 4 μl/ml", "result": 1.081}, {"measurement": "Survival value caal", "setting": "Candida albicans; single component at 10 μl/ml", "result": 0.000}, {"measurement": "Concentration with cidal activity against Enterobacter aerogenes", "setting": "Enterobacter aerogenes", "result": 10, "unit": "μl/ml"}, {"measurement": "Survival value enae", "setting": "Enterobacter aerogenes; single component at 1 μl/ml", "result": "tntc"}, {"measurement": "Survival value enae", "setting": "Enterobacter aerogenes; single component at 2.5 μl/ml", "result": 0.092}, {"measurement": "Survival value enae", "setting": "Enterobacter aerogenes; single component at 4 μl/ml", "result": 0.244}, {"measurement": "Survival value enae", "setting": "Enterobacter aerogenes; single component at 5 μl/ml", "result": 0.440}, {"measurement": "Survival value enae", "setting": "Enterobacter aerogenes; single component at 10 μl/ml", "result": 0.000}, {"measurement": "Concentration required for cidal action", "setting": "[1]", "result": "greater than 2.5 μl/ml"}]}
{"smiles": "OB(O)O", "note": "[Boric Acid, boric acid, reference compound]", "values": [{"measurement": "Antimicrobial action against Escherichia coli, in words", "setting": "Escherichia coli; concentrations as in label", "result": "ineffective"}, {"measurement": "Survival value esco", "setting": "Escherichia coli; single component at 5 mg/ml", "result": 0.770}, {"measurement": "Antimicrobial action against Pseudomonas aeruginosa, in words", "setting": "Pseudomonas aeruginosa; concentrations as in label", "result": "ineffective"}, {"measurement": "Survival value psae", "setting": "Pseudomonas aeruginosa; single component at 5 mg/ml", "result": 1.157}, {"measurement": "Antimicrobial action against Enterococcus faecalis, in words", "setting": "Enterococcus faecalis; concentrations as in label", "result": "ineffective"}, {"measurement": "Survival value enfa", "setting": "Enterococcus faecalis; single component at 5 mg/ml", "result": 2.647}, {"measurement": "Antimicrobial action against Enterobacter aerogenes, in words", "setting": "Enterobacter aerogenes; concentrations as in label", "result": "ineffective"}, {"measurement": "Survival value enae", "setting": "Enterobacter aerogenes; single component at 5 mg/ml", "result": 1.061}]}
{"smiles": "[H]/N=C(\\N/C(=N/[H])NCCCCCCNC(=N)NC(=N)Nc1ccc(Cl)cc1)Nc1ccc(Cl)cc1", "note": "[Chlorhexidine, chlorhexidine, reference compound]", "values": [{"measurement": "Concentration with cidal activity against Escherichia coli", "setting": "Escherichia coli", "result": 0.0075, "unit": "mg/mL"}, {"measurement": "Survival value esco", "setting": "Escherichia coli; [2]", "result": 0.003}, {"measurement": "Survival value esco", "setting": "Escherichia coli; [3]", "result": 0.000}, {"measurement": "Survival value esco", "setting": "Escherichia coli; single component at 0.01 mg/ml", "result": 0.000}, {"measurement": "Survival value esco", "setting": "Escherichia coli; single component at 0.02 mg/ml", "result": 0.000}, {"measurement": "Survival value esco", "setting": "Escherichia coli; single component at 0.05 mg/ml", "result": 0.000}, {"measurement": "Survival value esco", "setting": "Escherichia coli; single component at 0.1 mg/ml", "result": 0.000}, {"measurement": "Survival value esco", "setting": "Escherichia coli; single component at 0.8 mg/ml", "result": 0.000}, {"measurement": "Concentration with cidal activity against Klebsiella pneumoniae", "setting": "Klebsiella pneumoniae; component alone", "result": 0.02, "unit": "mg/mL"}, {"measurement": "Survival value klpn", "setting": "Klebsiella pneumoniae; single component at 0.02 mg/ml", "result": 0.000}, {"measurement": "Concentration with cidal activity against Proteus vulgaris", "setting": "Proteus vulgaris; component alone", "result": 0.02, "unit": "mg/mL"}, {"measurement": "Survival value prvu", "setting": "Proteus vulgaris; single component at 0.02 mg/ml", "result": 0.000}, {"measurement": "Concentration with cidal activity against Pseudomonas aeruginosa", "setting": "Pseudomonas aeruginosa", "result": "> 0.05", "unit": "mg/mL"}, {"measurement": "Survival value psae", "setting": "Pseudomonas aeruginosa; [2]", "result": "tntc"}, {"measurement": "Survival value psae", "setting": "Pseudomonas aeruginosa; [3]", "result": 4.049}, {"measurement": "Survival value psae", "setting": "Pseudomonas aeruginosa; single component at 0.01 mg/ml", "result": 0.277}, {"measurement": "Survival value psae", "setting": "Pseudomonas aeruginosa; single component at 0.05 mg/ml", "result": 0.046}, {"measurement": "Concentration with cidal activity against Enterococcus faecalis", "setting": "Enterococcus faecalis", "result": "0.05 to 0.8", "unit": "mg/mL"}, {"measurement": "Survival value enfa", "setting": "Enterococcus faecalis; [2]", "result": 1.115}, {"measurement": "Survival value enfa", "setting": "Enterococcus faecalis; [3]", "result": 0.598}, {"measurement": "Survival value enfa", "setting": "Enterococcus faecalis; single component at 0.01 mg/ml", "result": 0.520}, {"measurement": "Survival value enfa", "setting": "Enterococcus faecalis; single component at 0.02 mg/ml", "result": "0.179 and 0.141"}, {"measurement": "Survival value enfa", "setting": "Enterococcus faecalis; single component at 0.05 mg/ml", "result": 0.000}, {"measurement": "Survival value enfa", "setting": "Enterococcus faecalis; single component at 0.1 mg/ml", "result": 0.561}, {"measurement": "Survival value enfa", "setting": "Enterococcus faecalis; single component at 0.8 mg/ml", "result": 0.000}, {"measurement": "Concentration with cidal activity against Candida albicans", "setting": "Candida albicans", "result": 0.0075, "unit": "mg/mL"}, {"measurement": "Survival value caal", "setting": "Candida albicans; [2]", "result": 5.308}, {"measurement": "Survival value caal", "setting": "Candida albicans; [3]", "result": 0.000}, {"measurement": "Survival value caal", "setting": "Candida albicans; single component at 0.02 mg/ml", "result": 0.000}, {"measurement": "Survival value caal", "setting": "Candida albicans; single component at 0.05 mg/ml", "result": 0.000}, {"measurement": "Survival value caal", "setting": "Candida albicans; single component at 0.1 mg/ml", "result": 0.000}, {"measurement": "Survival value caal", "setting": "Candida albicans; single component at 0.8 mg/ml", "result": 0.000}, {"measurement": "Concentration with cidal activity against Enterobacter aerogenes", "setting": "Enterobacter aerogenes", "result": 0.01, "unit": "mg/mL"}, {"measurement": "Survival value enae", "setting": "Enterobacter aerogenes; [2]", "result": "tntc"}, {"measurement": "Survival value enae", "setting": "Enterobacter aerogenes; [3]", "result": 6.098}, {"measurement": "Survival value enae", "setting": "Enterobacter aerogenes; single component at 0.01 mg/ml", "result": 0.000}, {"measurement": "Survival value enae", "setting": "Enterobacter aerogenes; single component at 0.05 mg/ml", "result": 0.000}, {"measurement": "Concentration required for cidal action", "setting": "[1]", "result": "greater than or equal to 0.01 mg/ml"}]}
